# According to US9546172B2, “Pyrazolo[3,4-d]pyrimidine and pyrazolo[2,3-d]pyrimidine compounds as kinase inhibitors” (Pharmacyclics LLC, priority 2011, dated 2017):
# Target: T1, Btk (Homo sapiens, UniProt Q06187)
# T1 construct: purified from insect cells as a full-length construct containing a N-terminal 6×-His tag; 6xHis (N); host or cells: insect cells (baculovirus Sf21 in Method B)
# Test: Btk in vitro inhibitory activity (one of Methods A, B, C)
# Format: biochemical
# Settings: determined in one of three in vitro assays (Examples 125-127)
# Experimental: The Btk IC50s of compounds disclosed herein was determined in one of the three in vitro assays described in Examples 125-127.
# (§1) Btk kinase activity was determined using a time-resolved fluorescence resonance energy transfer (TR-FRET) methodology. Measurements were performed in a reaction volume of 50 μL using 96-well assay plates. […] The reaction was quenched by the addition of 1.2 equivalents of EDTA (relative to divalent cation) in 25 μL of 1× Lance buffer (Perkin-Elmer). Streptavidin-APC (Perkin-Elmer) and Eu-labeled p-Tyr100 antibody (Perkin-Elmer) in 1× Lance buffer were added in a 25 μL volume to give final concentrations of 100 nM and 2.5 nM, respectively, and the mixture was allowed to incubate for one hour. The TR-FRET signal was measured on a multimode plate reader with an excitation wavelength (λEx) of 330 nm and detection wavelengths (λEm) of 615 and 665 nm. Activity was determined by the ratio of the fluorescence at 665 nm to that at 615 nm. For each compound, enzyme activity was measured at various concentrations of compound. Negative control reactions were performed in the absence of inhibitor in replicates of six, and two no-enzyme controls were used to determine baseline fluorescence levels Inhibition constants, Ki(app), were obtained using the program BatchKi (Kuzmic et al. (2000), Anal. Biochem. 286:45-50). IC50s were obtained according to the equation: IC50={Ki(app)/(1+[ATP]/Km^ATP)}+[E]total/2; For all kinases, [ATP]=Km^ATP, [Btk]total=0.5 nM and [Lck]total=6 nM.
# Kinase activity is measured in vitro using electrophoretic mobility shift assay. The kinase reactions are assembled in a total volume of 25 μL in 384 well plates. […] The reaction is incubated for one hour and is quenched by the addition of 45 μL of termination buffer (100 mM HEPES, pH7.5, 0.01% Triton X-100, 30 mM EDTA). The terminated reactions are analyzed using 12 channel LabChip® 3000 microfluidic detection instrument (Caliper Life Sciences). The enzymatic phosphorylation of the peptide results in a change in net charge, enabling electrophoretic separation of product from substrate peptide. As substrate and product peptides are separated, two peaks of fluorescence are observed. Change in the relative fluorescence intensity of the substrate and product peaks is the parameter measured, reflecting enzyme activity. In the presence of an inhibitor, the ratio between product and substrate is altered: the signal of the product decreases, while the signal of the substrate increases.
# Activity in each sample is determined as the product to sum ratio (PSR): P/(S+P), where P is the peak height of the product peptide and S is the peak height of the substrate peptide. For each compound, enzyme activity is measured at various concentrations (12 concentrations of compound spaced by 3× dilution intervals). Negative control samples (0%-inhibition in the absence of inhibitor) and positive control samples (100%-inhibition, in the presence of 20 mM EDTA) are assembled in replicates of four and are used to calculate %-inhibition values for each inhibitor at each concentration. Percent inhibition (Pinh) is determined using following equation: Pinh=(PSR0%−PSRinh)/(PSR0%−PSR100%)*100, where PSRinh is the product sum ratio in the presence of inhibitor, PSR0% is the average product sum ration in the absence of inhibitor and PSR100% is the average product sum ratio in 100%-inhibition control samples;
# The IC50 values of inhibitors are determined by 4 parameter sigmoidal dose-response model fitting of the inhibition curves (Pinh versus inhibitor concentration) using XLfit 4 software.
# Human Btk kinase (Genbank accession # NP_000052) was purified from insect cells as a full-length construct containing a N-terminal 6×-His tag. Btk kinase activity was determined using a radiometric filter binding assay. Measurements are performed in a low reaction volume 384-well assay plates. […]
# T1 sequence (Q06187 whole entry): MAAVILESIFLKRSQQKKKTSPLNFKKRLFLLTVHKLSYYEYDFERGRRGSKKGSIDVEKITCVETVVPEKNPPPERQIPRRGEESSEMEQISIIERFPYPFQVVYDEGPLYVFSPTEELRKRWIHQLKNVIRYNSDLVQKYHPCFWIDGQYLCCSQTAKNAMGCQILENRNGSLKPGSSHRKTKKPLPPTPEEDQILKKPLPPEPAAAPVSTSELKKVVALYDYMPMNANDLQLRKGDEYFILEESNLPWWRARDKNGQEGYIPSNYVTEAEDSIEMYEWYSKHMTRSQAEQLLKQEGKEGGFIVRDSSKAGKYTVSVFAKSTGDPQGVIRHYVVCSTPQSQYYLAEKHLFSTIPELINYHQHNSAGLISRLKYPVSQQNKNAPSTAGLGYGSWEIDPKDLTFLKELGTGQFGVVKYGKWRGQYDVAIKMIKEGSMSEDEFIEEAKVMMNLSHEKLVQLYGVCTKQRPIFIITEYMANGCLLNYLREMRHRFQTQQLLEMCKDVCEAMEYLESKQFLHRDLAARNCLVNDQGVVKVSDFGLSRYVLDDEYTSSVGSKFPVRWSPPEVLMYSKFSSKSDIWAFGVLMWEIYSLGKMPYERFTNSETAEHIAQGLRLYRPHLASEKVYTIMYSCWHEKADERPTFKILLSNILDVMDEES
row,IC50 [nM],Compound
1,< 100,"C=CC(=O)Nc1ccc(-n2nc(-c3ccc(Cl)c(Cl)c3)c3c(N)ncnc32)cc1 [Example 20, N-(4-(4-amino-3-(3,4-dichlorophenyl)-1H-pyrazolo[3,4-d]pyrimidin-1-yl)phenyl)acrylamide]"
2,< 100,COc1cc(-c2nn(-c3cccc(N(C)C(=O)/C=C/CN(C)C)n3)c3ncnc(N)c23)ccc1C [Example 30]
3,< 100,CN(C)C/C=C/C(=O)N(C)c1cccc(-n2nc(-c3ccc(Cl)cc3)c3c(N)ncnc32)n1 [Example 31]
4,< 100,CN(C(=O)/C=C/CN(C)C1CC1)c1ccc(-n2nc(-c3ccc(Cl)cc3)c3c(N)ncnc32)cc1 [Example 32]
5,< 100,CCN(C/C=C/C(=O)N(C)c1ccc(-n2nc(-c3ccc(Cl)cc3)c3c(N)ncnc32)cc1)C1CC1 [Example 33]
6,< 100,CN(C(=O)/C=C/CN(C)C1CCC1)c1ccc(-n2nc(-c3ccc(Cl)cc3)c3c(N)ncnc32)cc1 [Example 34]
7,< 100,COc1cc(-c2nn(-c3cccc(NC(=O)/C=C/CN(C)C)c3)c3ncnc(N)c23)ccc1C [Example 35]
8,< 100,C=CC(=O)N1CC[C@@H](n2nc(-c3ccc(Cl)cc3)c3c(N)ncnc32)C1 [Example 36]
9,< 100,C=CC(=O)N(C)c1cccc(-n2nc(-c3ccc(C)c(OC)c3)c3c(N)ncnc32)c1 [Example 37]
10,< 100,COc1cc(-c2nn(-c3cccc(N(C)C(=O)/C=C/CN(C)C)c3)c3ncnc(N)c23)ccc1C [Example 38]
11,< 100,COc1cc(-c2nn(-c3ccc(N(C)C(=O)/C=C/CN(C)C4CCC4)cc3)c3ncnc(N)c23)ccc1C [Example 40]
12,< 100,COCCOc1ccc(-n2nc(-c3ccc(C)c(OC)c3)c3c(N)ncnc32)cc1NC(=O)/C=C/CN(C)C [Example 41]
13,< 100,COc1cc(-c2nn(-c3cccc(N(C)C(=O)/C=C/CN4CCOCC4)c3)c3ncnc(N)c23)ccc1C [Example 44]
14,< 100,COc1cc(-c2nn([C@@H]3CCCN(C(=O)/C=C/CN(C)C)C3)c3ncnc(N)c23)ccc1C [Example 45]
15,< 100,CN(C)C/C=C/C(=O)N1CCC[C@@H](n2nc(-c3ccc(Cl)cc3)c3c(N)ncnc32)C1 [Example 46]
16,< 100,CN(C)C/C=C/C(=O)N1CCC(n2nc(-c3ccc(Cl)cc3)c3c(N)ncnc32)CC1 [Example 47]
17,< 100,COc1cc(-c2nn(CC3CCN(C(=O)/C=C/CN(C)C)CC3)c3ncnc(N)c23)ccc1C [Example 48]
18,< 100,COc1cc(-c2nn(C[C@@H]3CCCN3C(=O)/C=C/CN(C)C)c3ncnc(N)c23)ccc1C [Example 49]
19,< 100,COc1cc(-c2nn(C[C@H]3CCCN3C(=O)/C=C/CN(C)C)c3ncnc(N)c23)ccc1C [Example 50]
20,< 100,CN(C)C/C=C/C(=O)N(C)c1cc(-n2nc(-c3ccc(Cl)cc3)c3c(N)ncnc32)ccc1F [Example 51]
21,< 100,COc1cc(-c2nn(-c3ccc(N(C)C(=O)/C=C/CN(C)C)c(Cl)c3)c3ncnc(N)c23)ccc1C [Example 52]
22,< 100,COc1cc(-c2nn(C3CCN(C(=O)/C=C/CN(C)C)CC3)c3ncnc(N)c23)ccc1C [Example 53]
23,< 100,COc1cc(-c2nn([C@@H]3CCN(C(=O)/C=C/CN(C)C)C3)c3ncnc(N)c23)c(F)cc1C [Example 54]
24,< 100,COc1cc(-c2nn(-c3cccc(N(C)C(=O)/C=C/CN(C)C)c3)c3ncnc(N)c23)c(F)cc1C [Example 55]
25,< 100,COc1cc(-c2nn(C3CCN(C(=O)/C=C/CN(C)C4CC4)CC3)c3ncnc(N)c23)ccc1C [Example 57]
26,< 100,COc1cc(-c2nn([C@H]3CC[C@@H](NC(=O)/C=C/CN(C)C4CC4)CC3)c3ncnc(N)c23)ccc1C [Example 59]

row,IC50 [nM],Compound
1,< 100,COc1cc(-c2nn([C@@H]3CCN(C(=O)/C=C/CN(C)C4CC4)C3)c3ncnc(N)c23)ccc1C [Example 60]
2,< 100,CN(C/C=C/C(=O)N1CC[C@@H](n2nc(-c3ccc(Cl)cc3)c3c(N)ncnc32)C1)C1CC1 [Example 61]
3,< 100,COc1cc(-c2nn(-c3ccc(N(C)C(=O)/C=C/CN(C)C)c(F)c3)c3ncnc(N)c23)ccc1C [Example 62]
4,< 100,COc1cc(-c2nn(-c3ccc(F)c(N(C)C(=O)/C=C/CN(C)C)c3)c3ncnc(N)c23)ccc1C [Example 63]
5,< 100,COc1cc(-c2nn(C3CN(C(=O)/C=C/CN(C)C)C3)c3ncnc(N)c23)ccc1C [Example 64]
6,< 100,CN(C)C/C=C/C(=O)N1CC(n2nc(-c3ccc(Cl)cc3)c3c(N)ncnc32)C1 [Example 65]
7,< 100,CN(C/C=C/C(=O)N1CC(n2nc(-c3ccc(Cl)cc3)c3c(N)ncnc32)C1)C1CC1 [Example 66]
8,< 100,COc1cc(-c2nn(C3CN(C(=O)/C=C/CN(C)C4CC4)C3)c3ncnc(N)c23)ccc1C [Example 67]
9,< 100,COc1cc(-c2nn(-c3ccc(N(C)C(=O)/C=C/CN(C)C4CC4)c(F)c3)c3ncnc(N)c23)ccc1C [Example 68]
10,< 100,CN(C(=O)/C=C/CN(C)C1CC1)c1cc(-n2nc(-c3ccc(Cl)cc3)c3c(N)ncnc32)ccc1F [Example 69]
11,< 100,COCCOc1ccc(-n2nc(-c3ccc(C)c(OC)c3)c3c(N)ncnc32)cc1N(C)C(=O)/C=C/CN(C)C [Example 70]
12,< 100,COc1cc(-c2nn(C[C@H]3CCN(C(=O)/C=C/CN(C)C)C3)c3ncnc(N)c23)ccc1C [Example 72]
13,< 100,COc1cc(-c2nn([C@H]3CC[C@@H](N(C)C(=O)/C=C/CN(C)C)CC3)c3ncnc(N)c23)ccc1C [Example 73]
14,< 100,COc1cc(-c2nn(-c3ccc(F)c(N(C)C(=O)/C=C/CN(C)C4CC4)c3)c3ncnc(N)c23)ccc1C [Example 76]
15,< 100,COc1cc(-c2nn(-c3ccc(OCC(C)(C)O)c(N(C)C(=O)/C=C/CN(C)C)c3)c3ncnc(N)c23)ccc1C [Example 77]
16,< 100,C=CC(=O)N1CCC(n2nc(-c3ccc(C)c(OC)c3)c3c(N)ncnc32)CC1 [Example 78]
17,< 100,C=CC(=O)N1CC(n2nc(-c3ccc(C)c(OC)c3)c3c(N)ncnc32)C1 [Example 79]
18,< 100,C=CC(=O)N1CCC(n2nc(-c3ccc(Cl)cc3)c3c(N)ncnc32)CC1 [Example 80]
19,< 100,C=CC(=O)N1CC(n2nc(-c3ccc(Cl)cc3)c3c(N)ncnc32)C1 [Example 81]
20,< 100,COc1cc(-c2nn(-c3ccc(N(C)S(=O)(=O)/C=C/CN(C)C)cc3)c3ncnc(N)c23)ccc1C [Example 82]
21,< 100,C=CC(=O)N1CC[C@@H](n2nc(-c3ccc(C)c(OC)c3)c3c(N)ncnc32)C1 [Example 83]
22,< 100,C=CC(=O)N1CCC[C@@H](n2nc(-c3ccc(C)c(OC)c3)c3c(N)ncnc32)C1 [Example 84]
23,< 100,C=CC(=O)N1CCC[C@@H](n2nc(-c3ccc(Cl)cc3)c3c(N)ncnc32)C1 [Example 85]
24,< 100,C=CC(=O)N1CC[C@@H](n2nc(-c3ccc(F)c(OC)c3)c3c(N)ncnc32)C1 [Example 85b]
25,< 100,C=CC(=O)N1CC[C@@H](n2nc(-c3ccc(F)cc3)c3c(N)ncnc32)C1 [Example 85c]
26,< 100,C=CC(=O)N1CC[C@@H](n2nc(-c3ccc(C)cc3)c3c(N)ncnc32)C1 [Example 85d]

# Target: Lck (Homo sapiens, UniProt P06239)
# Sequence (P06239 whole entry): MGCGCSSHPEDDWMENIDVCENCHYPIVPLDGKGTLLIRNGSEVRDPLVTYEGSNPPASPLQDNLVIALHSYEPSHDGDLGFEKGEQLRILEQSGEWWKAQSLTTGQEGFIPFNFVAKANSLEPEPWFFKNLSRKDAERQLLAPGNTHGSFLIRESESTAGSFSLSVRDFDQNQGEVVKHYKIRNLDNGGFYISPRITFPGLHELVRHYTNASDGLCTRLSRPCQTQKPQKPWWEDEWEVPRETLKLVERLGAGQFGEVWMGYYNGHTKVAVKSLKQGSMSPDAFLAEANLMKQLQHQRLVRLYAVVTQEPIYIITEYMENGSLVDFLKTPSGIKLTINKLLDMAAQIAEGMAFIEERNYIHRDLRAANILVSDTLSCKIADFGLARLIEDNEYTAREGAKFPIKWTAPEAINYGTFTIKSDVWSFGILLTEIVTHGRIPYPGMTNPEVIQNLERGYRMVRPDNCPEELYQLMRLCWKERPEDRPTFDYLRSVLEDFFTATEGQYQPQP
# Test: Lck kinase inhibition
# Format: biochemical
# Settings: not given
# Experimental: as §1
row,IC50 [nM],Compound
1,100 to 1000,"C=CC(=O)Nc1ccc(-n2nc(-c3ccc(Cl)c(Cl)c3)c3c(N)ncnc32)cc1 [Example 20, N-(4-(4-amino-3-(3,4-dichlorophenyl)-1H-pyrazolo[3,4-d]pyrimidin-1-yl)phenyl)acrylamide]"

# Target: C-src (Homo sapiens, UniProt P12931)
# Sequence (P12931 whole entry): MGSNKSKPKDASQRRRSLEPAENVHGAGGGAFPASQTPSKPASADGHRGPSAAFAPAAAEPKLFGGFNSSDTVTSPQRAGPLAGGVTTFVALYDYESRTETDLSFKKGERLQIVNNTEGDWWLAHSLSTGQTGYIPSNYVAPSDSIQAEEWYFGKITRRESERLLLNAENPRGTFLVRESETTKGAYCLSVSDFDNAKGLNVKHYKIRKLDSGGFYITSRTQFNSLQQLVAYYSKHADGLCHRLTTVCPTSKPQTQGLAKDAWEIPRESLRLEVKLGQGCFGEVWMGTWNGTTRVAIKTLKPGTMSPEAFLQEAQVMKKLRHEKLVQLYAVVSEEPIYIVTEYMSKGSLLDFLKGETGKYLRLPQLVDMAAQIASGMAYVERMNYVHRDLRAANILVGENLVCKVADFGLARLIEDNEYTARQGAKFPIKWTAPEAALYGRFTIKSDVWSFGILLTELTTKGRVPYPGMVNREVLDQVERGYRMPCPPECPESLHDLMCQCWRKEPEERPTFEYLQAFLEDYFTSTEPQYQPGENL
# Test: C-src kinase inhibition
# Format: biochemical
# Settings: not given
# Experimental: as §1
row,IC50 [nM],Compound
1,< 100,"C=CC(=O)Nc1ccc(-n2nc(-c3ccc(Cl)c(Cl)c3)c3c(N)ncnc32)cc1 [Example 20, N-(4-(4-amino-3-(3,4-dichlorophenyl)-1H-pyrazolo[3,4-d]pyrimidin-1-yl)phenyl)acrylamide]"

# Target: Lyn (Homo sapiens, UniProt P07948)
# Sequence (P07948 whole entry): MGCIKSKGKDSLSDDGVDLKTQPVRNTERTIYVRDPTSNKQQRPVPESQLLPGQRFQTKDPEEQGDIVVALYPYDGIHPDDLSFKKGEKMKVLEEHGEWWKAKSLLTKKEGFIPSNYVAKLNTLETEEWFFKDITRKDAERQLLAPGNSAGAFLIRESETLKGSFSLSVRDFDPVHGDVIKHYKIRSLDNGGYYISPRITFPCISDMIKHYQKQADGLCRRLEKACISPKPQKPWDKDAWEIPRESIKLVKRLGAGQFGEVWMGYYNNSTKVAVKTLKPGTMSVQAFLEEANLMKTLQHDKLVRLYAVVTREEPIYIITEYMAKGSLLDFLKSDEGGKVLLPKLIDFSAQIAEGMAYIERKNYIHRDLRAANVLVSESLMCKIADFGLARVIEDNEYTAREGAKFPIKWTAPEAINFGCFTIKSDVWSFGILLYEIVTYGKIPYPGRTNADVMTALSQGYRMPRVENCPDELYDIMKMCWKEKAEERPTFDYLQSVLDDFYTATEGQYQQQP
# Test: Lyn kinase inhibition
# Format: biochemical
# Settings: not given
row,IC50 [nM],Compound
1,100 to 1000,"C=CC(=O)Nc1ccc(-n2nc(-c3ccc(Cl)c(Cl)c3)c3c(N)ncnc32)cc1 [Example 20, N-(4-(4-amino-3-(3,4-dichlorophenyl)-1H-pyrazolo[3,4-d]pyrimidin-1-yl)phenyl)acrylamide]"
